Blank lines part the entries; values can stand above or below the compound they belong to.
Legend:
Assay type in all cases: biochemical
Details in all cases: 3 μM; percent of control kinase activity
CHK1(h) = molecular target: T1, CHK1(h) (Homo sapiens, UniProt O14757); test: CHK1(h) kinase assay
T1 sequence (O14757 1-476): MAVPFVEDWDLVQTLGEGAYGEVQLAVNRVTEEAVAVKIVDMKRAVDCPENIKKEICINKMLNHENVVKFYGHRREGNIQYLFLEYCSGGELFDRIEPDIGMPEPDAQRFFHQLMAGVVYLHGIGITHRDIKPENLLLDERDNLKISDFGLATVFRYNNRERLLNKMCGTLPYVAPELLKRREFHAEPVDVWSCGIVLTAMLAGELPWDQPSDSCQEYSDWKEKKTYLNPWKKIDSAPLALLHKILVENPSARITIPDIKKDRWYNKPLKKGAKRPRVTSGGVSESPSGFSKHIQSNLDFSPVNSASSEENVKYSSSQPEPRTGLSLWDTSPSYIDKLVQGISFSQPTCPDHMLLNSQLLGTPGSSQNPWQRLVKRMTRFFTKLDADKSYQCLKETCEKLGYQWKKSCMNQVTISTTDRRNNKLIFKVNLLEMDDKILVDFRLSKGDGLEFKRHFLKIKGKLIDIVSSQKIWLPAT
Procedure: (§1) Six compounds (presumptive single agents) were tested against a panel of 50 kinases. The results are presented in Table 2; numbers for each kinase indicate the percent of control kinase activity in the presence of a 3μM concentration of the indicated agent.
(§2) Agents that target two or more different kinases are useful in the methods of the invention as described elsewhere herein. Such compounds may be identified, and their effect on certain kinases may be identified, using the assays briefly described below in Examples 4-83. Each of these assays was carried out as described in Davies et al., Biochem. J., 351:95-105 (2000). All assays were carried out at 10 μM ATP unless otherwise noted.
(§3) In a final reaction volume of 25 μl, CHK1(h) (5-10 mU) is incubated with 8 mM MOPS pH 7.0,0.2 mM EDTA, 200 μM […] (SEQ ID NO:5), 10 mM MgAcetate and [γ-^33P-ATP] (specific activity approx. 500 cpm/pmol, concentration as required). The reaction is initiated by the addition of Mg^2+ [γ-^33P-ATP]. After incubation for 40 minutes at room temperature, the reaction is stopped by the addition of 5 μl of a 3% phosphoric acid solution. 10 μl of the reaction is then spotted onto a P30 filtermat and washed three times for 5 minutes in 75 mM phosphoric acid and once in methanol prior to drying and scintillation counting.

Lck(h) = Lck(h) (Homo sapiens, UniProt P06239); test: Lck(h) kinase assay
Lck(h), sequence (P06239 whole entry): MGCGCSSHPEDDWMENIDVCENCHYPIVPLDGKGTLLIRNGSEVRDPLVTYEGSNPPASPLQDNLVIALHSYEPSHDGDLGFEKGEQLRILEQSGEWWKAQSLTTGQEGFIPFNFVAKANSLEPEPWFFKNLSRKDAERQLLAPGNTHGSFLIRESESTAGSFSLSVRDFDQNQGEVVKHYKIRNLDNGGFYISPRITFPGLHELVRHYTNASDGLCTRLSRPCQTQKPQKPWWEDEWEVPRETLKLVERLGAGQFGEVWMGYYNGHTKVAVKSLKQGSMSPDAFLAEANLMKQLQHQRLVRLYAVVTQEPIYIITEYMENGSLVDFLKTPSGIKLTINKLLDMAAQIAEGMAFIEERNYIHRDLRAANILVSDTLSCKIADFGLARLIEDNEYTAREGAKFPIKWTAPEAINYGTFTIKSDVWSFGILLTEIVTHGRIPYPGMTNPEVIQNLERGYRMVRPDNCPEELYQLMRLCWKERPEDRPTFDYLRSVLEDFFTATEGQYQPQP
Procedure: as §1, §2
In a final reaction volume of 25 μl, Lck(h) (5-10 mU) is incubated with 50 mM Tris pH 7.5, 0.1 mM EGTA, 0.1 mM NaVanadate, 250 μM […] (Cdc2 peptide; SEQ ID NO:7), 10 mM MgAcetate and [γ-^33P-ATP] (specific activity approx. 500 cpm/pmol, concentration as required). The reaction is initiated by the addition of Mg^2+ [γ-^33P-ATP]. After incubation for 40 minutes at room temperature, the reaction is stopped by the addition of 5 μl of a 3% phosphoric acid solution. 10 μl of the reaction is then spotted onto a P30 filtermat and washed three times for 5 minutes in 75 mM phosphoric acid and once in methanol prior to drying and scintillation counting.

Fes(h) = Fes(h) (Homo sapiens, UniProt P07332); test: Fes(h) kinase assay
Fes(h), sequence (P07332 whole entry): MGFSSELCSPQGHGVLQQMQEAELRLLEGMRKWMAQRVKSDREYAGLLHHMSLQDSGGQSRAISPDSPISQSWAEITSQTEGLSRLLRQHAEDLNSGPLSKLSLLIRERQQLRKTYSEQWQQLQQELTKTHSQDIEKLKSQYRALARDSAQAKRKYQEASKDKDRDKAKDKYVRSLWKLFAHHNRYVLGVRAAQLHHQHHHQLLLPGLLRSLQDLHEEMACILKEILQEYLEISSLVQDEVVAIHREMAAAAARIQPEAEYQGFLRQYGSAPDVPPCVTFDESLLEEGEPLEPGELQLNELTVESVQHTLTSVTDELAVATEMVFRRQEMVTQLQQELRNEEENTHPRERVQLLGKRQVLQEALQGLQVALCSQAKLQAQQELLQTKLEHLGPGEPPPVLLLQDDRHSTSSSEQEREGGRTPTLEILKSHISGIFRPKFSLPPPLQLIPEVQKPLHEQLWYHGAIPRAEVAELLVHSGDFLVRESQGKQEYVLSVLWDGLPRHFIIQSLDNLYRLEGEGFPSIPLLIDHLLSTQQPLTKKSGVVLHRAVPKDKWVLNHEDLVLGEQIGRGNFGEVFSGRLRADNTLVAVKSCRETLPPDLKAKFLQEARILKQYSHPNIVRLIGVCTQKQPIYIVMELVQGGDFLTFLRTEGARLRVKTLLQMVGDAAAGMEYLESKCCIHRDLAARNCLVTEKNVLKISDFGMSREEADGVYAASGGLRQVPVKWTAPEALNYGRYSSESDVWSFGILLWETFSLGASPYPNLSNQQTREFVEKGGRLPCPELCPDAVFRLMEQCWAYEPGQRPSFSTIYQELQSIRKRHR
Procedure: as §1, §2
In a final reaction volume of 25 μl, Fes(h) (5-10 mU) is incubated with 8 mM MOPS pH 7.0, 0.2 mM EDTA, 0.1 mg/ml poly(Glu, Tyr) 4:1, 10 mM MgAcetate and [γ-^33P-ATP] (specific activity approx. 500 cpm/pmol, concentration as required). The reaction is initiated by the addition of Mg^2+ [γ-^33P-ATP]. After incubation for 40 minutes at room temperature, the reaction is stopped by the addition of 5 μl of a 3% phosphoric acid solution. 10 μl of the reaction is then spotted onto a Filtermat A and washed three times for 5 minutes in 75 mM phosphoric acid and once in methanol prior to drying and scintillation counting.

PKCε(h) = molecular target: T2, PKCε(h) (Homo sapiens, UniProt Q02156); test: PKCε(h) kinase assay
T2 sequence (Q02156 1-737): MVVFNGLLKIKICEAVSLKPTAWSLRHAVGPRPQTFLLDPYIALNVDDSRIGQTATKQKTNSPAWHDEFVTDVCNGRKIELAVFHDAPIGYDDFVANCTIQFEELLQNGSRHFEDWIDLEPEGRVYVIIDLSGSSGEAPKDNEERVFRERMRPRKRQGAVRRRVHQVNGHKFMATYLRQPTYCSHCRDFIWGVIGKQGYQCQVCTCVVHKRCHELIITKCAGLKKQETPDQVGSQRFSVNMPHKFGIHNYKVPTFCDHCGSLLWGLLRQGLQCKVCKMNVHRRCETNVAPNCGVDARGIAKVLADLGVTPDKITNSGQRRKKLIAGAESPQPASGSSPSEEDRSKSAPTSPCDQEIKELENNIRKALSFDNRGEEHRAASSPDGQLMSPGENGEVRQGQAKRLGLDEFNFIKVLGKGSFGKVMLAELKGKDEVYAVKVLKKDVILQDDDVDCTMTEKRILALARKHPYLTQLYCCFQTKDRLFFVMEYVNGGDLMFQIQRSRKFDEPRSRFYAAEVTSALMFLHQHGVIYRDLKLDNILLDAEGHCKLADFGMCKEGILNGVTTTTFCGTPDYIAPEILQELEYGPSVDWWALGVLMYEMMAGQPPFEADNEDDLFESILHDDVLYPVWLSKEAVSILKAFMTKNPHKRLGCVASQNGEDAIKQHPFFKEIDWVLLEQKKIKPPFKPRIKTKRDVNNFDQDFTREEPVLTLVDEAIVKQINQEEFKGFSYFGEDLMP
Procedure: as §1, §2
as §3, with “PKCε(h)” for “CHK1(h)”, “20” for “8”, “Hepes” for “MOPS”, “7.4, 0.03% Triton X-100, 0.1 mg/ml phosphatidylserine, 10 μg/ml diacylglycerol, 50” for “7.0,0.2 mM EDTA, 200”, “NO: 18),” for “NO:5),”, “(Specific” for “(specific”

Structure (SMILES): CC(C)Cc1nc(-c2ccc3[nH]nc(-c4ccc5cc(OCCN6CCCC6)ccc5c4)c3c2)n[nH]1 [CC002, 5-(5-Isobutyl-1H-[1,2,4]Triazol-3-yl)-3-[6-(2-Pyrrolidin-1-yl-Ethoxy)-Naphthalen-2-yl]-1H-Indazole]
Inhibitory activity (% of control), CHK1(h) (CHK1(h)): 12 % of control | Inhibitory activity (% of control), Lck(h) (Lck(h)): 5 % of control | Inhibitory activity (% of control), Fes(h) (Fes(h)): 10 % of control | Inhibitory activity (% of control), PKCε(h) (PKCε(h)): 58 % of control

Structure (SMILES): COc1ccc2cc(-c3n[nH]c4ccc(-c5n[nH]c(CN6CCOCC6)n5)cc34)ccc2c1 [CC001, 3-(6-Methoxynaphthalen-2-yl)-5-(5-Morpholin-4-Ylmethyl-1H-[1,2,4]Triazol-3-yl)-1H-Indazole]
Inhibitory activity (% of control), CHK1(h) (CHK1(h)): 36 % of control | Inhibitory activity (% of control), Lck(h) (Lck(h)): 27 % of control | Inhibitory activity (% of control), Fes(h) (Fes(h)): 34 % of control | Inhibitory activity (% of control), PKCε(h) (PKCε(h)): 82 % of control

Structure (SMILES): CC(C)(C)Cc1nc(-c2ccc3[nH]nc(-c4ccc5cc(OCc6ccccn6)ccc5c4)c3c2)n[nH]1 [CC004, 5-[5-(2,2-Dimethyl-propyl)-1H-[1,2,4]triazol-3-yl]-3-[6-(pyridine-2-ylmethoxy)-naphthalen-2-yl]-1H-indazole]
Inhibitory activity (% of control), CHK1(h) (CHK1(h)): 64 % of control | Inhibitory activity (% of control), Lck(h) (Lck(h)): 57 % of control | Inhibitory activity (% of control), Fes(h) (Fes(h)): 70 % of control | Inhibitory activity (% of control), PKCε(h) (PKCε(h)): 105 % of control

Structure (SMILES): CCN1CCC[C@H]1COc1ccc2cc(-c3n[nH]c4ccc(-c5nc(CC(C)(C)C)n[nH]5)cc34)ccc2c1 [CC005, 2-[((2s)-1-ethylpyrrolidin-2-yl)methoxy]-6-{5-[3-(2,2-Dimethylpropyl)(1H-1,2,4,-triazol-5-yl)](1H-indazol-3-yl)}naphthalene]
Inhibitory activity (% of control), CHK1(h) (CHK1(h)): 6 % of control | Inhibitory activity (% of control), Lck(h) (Lck(h)): 6 % of control | Inhibitory activity (% of control), Fes(h) (Fes(h)): 8 % of control | Inhibitory activity (% of control), PKCε(h) (PKCε(h)): 84 % of control

Second part, the compound after the results:

Inhibitory activity (% of control), CHK1(h) (CHK1(h)): 90 % of control | Inhibitory activity (% of control), Lck(h) (Lck(h)): 56 % of control | Inhibitory activity (% of control), Fes(h) (Fes(h)): 41 % of control | Inhibitory activity (% of control), PKCε(h) (PKCε(h)): 79 % of control
Structure (SMILES): O=C(NC1CCCC1)c1cccc(-c2n[nH]c3ccc(-c4nc[nH]n4)cc23)c1 [CC007, 3-(5-(1H-1,2,4-triazol-3-yl)(1H-indazol-3-yl))phenyl-N-cyclopentylcarboxamide, reference compound]

Inhibitory activity (% of control), CHK1(h) (CHK1(h)): 70 % of control | Inhibitory activity (% of control), Lck(h) (Lck(h)): 43 % of control | Inhibitory activity (% of control), Fes(h) (Fes(h)): 70 % of control | Inhibitory activity (% of control), PKCε(h) (PKCε(h)): 82 % of control
Structure (SMILES): Fc1ccc(-c2n[nH]c3ccc(-c4n[nH]c(C5CCCC5)n4)cc23)cc1 [CC006, 5-(5-Cyclopentyl-1H-[1,2,4]triazol-3-yl)-3-(4-fluoro-phenyl)-1H-indazole, reference compound]
